Data reported in patent US20150284452A1, “ANTIMICROBIAL COMPOSITIONS” (priority 2012, published 2015).

System: S. aureus NRS384 (USA300)
Assay: MIC assay at multiple inoculum sizes
Assay type: cell-based, Staphylococcus aureus
Excerpt: 5×10^6 cfu/ml and 75 nanomolar against an inoculum of 5×10^8 cfu/ml.

[1] = High Titer 5,000,000 CFU/well, ND = higher than highest tested concentration
[2] = High Titer 500,000,000 CFU/well, ND = higher than highest tested concentration
[3] = Low Titer 50,000,000 CFU/well, ND = higher than highest tested concentration

“Lysostaphin (Sigma L9043): lysostaphin control (Sigma L9043), glycylglycine endopeptidase” was tested, and the “MIC Rep 1” value [1] was 0.0271 µM, the “MIC Rep 2” value [1] was 0.0271 µM and the “MIC Ave” value (High Titer 5,000,000 CFU/well, average of replicates) was 0.0271 µM. The “MIC Ave” value [2] was 0.2 µM, the “MIC Rep 2” value [2] was 0.2 µM and the “MIC Rep 1” value (Low Titer 50,000 CFU/well) was 0.054 µM. The “MIC Rep 2” value (Low Titer 50,000 CFU/well) was 0.0271 µM, the “MIC Ave” value (Low Titer 50,000 CFU/well, average of replicates) was 0.0407 µM and the “MIC Ave” value [3] was 0.2 µM. The “MIC Rep 1” value [3] was 0.2 µM and the “MIC Rep 2” value [3] was 0.2 µM.
